Measurements from patent publication US20080221132A1, “Multi-Functional Small Molecules as Anti-Proliferative Agents” (priority 2006, published 2008).
pIC50: −log10 of the molar value. Like-named read-outs stand apart in the source and are kept apart here.

How the values were obtained:
Lck Kinase = Lck Kinase (Homo sapiens, UniProt P06239); experiment: Kinase panel (TABLE F), Lck Kinase; assay type: biochemical
[1] = test system: Prostate_22RV1 (22RV1, prostate carcinoma); experiment: Cell proliferation assay (ATPlite), 22RV1; assay type: cell-based; conditions: Homo sapiens
Experimental: (§1) A representative number of compounds were assayed against several different cell lines using the cell proliferation assay:
(§2) Cell Proliferation Assay:
(§3) Cancer cell lines were plated at 5,000 to 10,000 per well in 96-well flatted bottomed plates with various concentration of compounds. […] Growth inhibition was accessed by adenosine triphosphate (ATP) content assay using Perkin Elmer ATPlite kit. ATPlite is an ATP monitoring system based on firefly luciferase. Briefly, 25 μl of mammalian cell lysis solution was added to 50 μl of phenol red-free culture medium per well to lyse the cells and stabilize the ATP. 25 μl of substrate solution was then added to the well and subsequently the luminescence was measured.

FGFR2 Kinase = FGFR2 Kinase (Homo sapiens, UniProt P21802); experiment: Kinase panel (TABLE F), FGFR2 Kinase; assay type: biochemical
Pancreas_BxPC3 = experiment: Cell proliferation assay (ATPlite), BxPC3; assay type: cell-based; conditions: Homo sapiens, BXPC-3; TABLE C; 72 hours, 0.5% fetal bovine serum, ATP content; read-out: IC50 grading, Pancreas_BxPC3
Experimental: as §1, §2
(§4) Cancer cell lines were plated at 5,000 to 10,000 per well in 96-well flatted bottomed plates with various concentration of compounds. The cells were incubated with compounds for 72 hours in the presence of 0.5% of fetal bovine serum. Growth inhibition was accessed by adenosine triphosphate (ATP) content assay using Perkin Elmer ATPlite kit. ATPlite is an ATP monitoring system based on firefly luciferase. Briefly, 25 μl of mammalian cell lysis solution was added to 50 μl of phenol red-free culture medium per well to lyse the cells and stabilize the ATP. 25 μl of substrate solution was then added to the well and subsequently the luminescence was measured.

Lung_H292 = experiment: Cell proliferation assay (ATPlite), H292; assay type: cell-based; conditions: Homo sapiens, NCI-H292; TABLE C; 72 hours, 0.5% fetal bovine serum, ATP content; read-out: IC50 grading, Lung_H292
Experimental: as §1, §2, §4

Lung_H460 = experiment: Cell proliferation assay (ATPlite), H460; assay type: cell-based; conditions: Homo sapiens, NCI-H460; TABLE C; 72 hours, 0.5% fetal bovine serum, ATP content; read-out: IC50 grading, Lung_H460
Experimental: as §1, §2, §4

[2] = test system: Prostate_PC3 (PC-3, prostate adenocarcinoma); experiment: Cell proliferation assay (ATPlite), PC3; assay type: cell-based
Experimental: as §1, §2, §3

[3] = test system: Epidermoid_A431 (A431, epidermoid carcinoma); experiment: Cell proliferation assay (ATPlite), A431; assay type: cell-based; conditions: Homo sapiens, A-431
Experimental: as §1, §2, §3

[4] = male, CD-1, mouse, in vivo, iv, 9 day
Experimental: Single dosing MTD in mice • a. CD-1 mice, male, 24-26 gram • b. Dosing at 0, 50, 100, 200, 400 mg/kg, iv infusion 2 min • c. 8 mice per group
(§5) Stock solution is diluted with 30% CAPTISOL before use.

[5] = test system: Colon_HCT116 (HCT116, colon cancer); experiment: Cell proliferation assay (ATPlite), HCT116; assay type: cell-based; conditions: Homo sapiens, HCT-116; TABLE C; 72 hours, 0.5% fetal bovine serum, ATP content; read-out: IC50 grading, Colon_HCT116
Experimental: as §1, §2, §3

Lung_H2122 = experiment: Cell proliferation assay (ATPlite), H2122; assay type: cell-based; conditions: Homo sapiens, NCI-H2122; TABLE C; 72 hours, 0.5% fetal bovine serum, ATP content; read-out: IC50 grading, Lung_H2122
Experimental: as §1, §2, §4

Lung_H358 = experiment: Cell proliferation assay (ATPlite), H358; assay type: cell-based; conditions: Homo sapiens, NCI-H358; TABLE C; 72 hours, 0.5% fetal bovine serum, ATP content; read-out: IC50 grading, Lung_H358
Experimental: as §1, §2, §4

Abl Kinase = Abl Kinase (Homo sapiens, UniProt P00519); experiment: Kinase panel (TABLE F), Abl Kinase; assay type: biochemical
Abl Kinase, sequence (P00519 whole entry): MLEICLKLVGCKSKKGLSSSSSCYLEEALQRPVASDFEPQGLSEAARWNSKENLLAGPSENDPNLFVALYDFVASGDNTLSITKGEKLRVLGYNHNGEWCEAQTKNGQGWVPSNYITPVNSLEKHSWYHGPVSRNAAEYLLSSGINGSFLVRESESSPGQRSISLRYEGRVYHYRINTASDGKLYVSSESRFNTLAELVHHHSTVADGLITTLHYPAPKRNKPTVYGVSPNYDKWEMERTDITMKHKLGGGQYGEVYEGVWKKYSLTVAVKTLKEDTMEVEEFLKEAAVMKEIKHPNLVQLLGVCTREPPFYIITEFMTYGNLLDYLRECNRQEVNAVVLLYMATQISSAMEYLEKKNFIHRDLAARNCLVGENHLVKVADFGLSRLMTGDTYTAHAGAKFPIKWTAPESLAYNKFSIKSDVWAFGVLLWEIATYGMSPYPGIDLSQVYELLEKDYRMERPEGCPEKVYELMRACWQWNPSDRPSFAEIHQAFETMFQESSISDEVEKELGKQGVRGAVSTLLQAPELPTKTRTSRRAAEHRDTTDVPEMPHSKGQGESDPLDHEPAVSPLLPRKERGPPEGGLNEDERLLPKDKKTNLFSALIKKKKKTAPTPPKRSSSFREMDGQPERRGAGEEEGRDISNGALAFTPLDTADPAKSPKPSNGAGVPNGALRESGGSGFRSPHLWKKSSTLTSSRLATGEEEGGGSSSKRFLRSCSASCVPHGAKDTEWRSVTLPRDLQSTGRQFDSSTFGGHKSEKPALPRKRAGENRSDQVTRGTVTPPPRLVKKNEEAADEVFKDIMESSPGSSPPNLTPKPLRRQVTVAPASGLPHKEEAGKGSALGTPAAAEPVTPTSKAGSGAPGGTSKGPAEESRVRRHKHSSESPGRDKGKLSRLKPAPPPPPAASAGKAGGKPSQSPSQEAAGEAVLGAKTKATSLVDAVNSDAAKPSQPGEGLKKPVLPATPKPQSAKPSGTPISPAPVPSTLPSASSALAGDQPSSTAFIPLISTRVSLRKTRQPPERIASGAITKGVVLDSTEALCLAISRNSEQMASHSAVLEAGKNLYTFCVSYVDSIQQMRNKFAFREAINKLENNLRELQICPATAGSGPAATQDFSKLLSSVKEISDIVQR

Pancreas_HPAC = experiment: Cell proliferation assay (ATPlite), HPAC; assay type: cell-based; conditions: Homo sapiens, TABLE C, 72 hours, 0.5% fetal bovine serum, ATP content, read-out: IC50 grading, Pancreas_HPAC
Experimental: as §1, §2, §4

Pancreas_Capan1 = experiment: Cell proliferation assay (ATPlite), Capan1; assay type: cell-based; conditions: Homo sapiens, CAPAN-1; TABLE C; 72 hours, 0.5% fetal bovine serum, ATP content; read-out: IC50 grading, Pancreas_Capan1
Experimental: as §1, §2, §4

[6] = test system: Breast_SkBr3 (SKBr3, breast carcinoma); experiment: Cell proliferation assay (ATPlite), SkBr3; assay type: cell-based; conditions: Homo sapiens, SK-BR-3
Experimental: as §1, §2, §3

VEGFR2 Kinase = VEGFR2 Kinase (Homo sapiens, UniProt P35968); experiment: Kinase panel (TABLE F), VEGFR2 Kinase; assay type: biochemical
VEGFR2 Kinase, sequence (P35968 20-1356): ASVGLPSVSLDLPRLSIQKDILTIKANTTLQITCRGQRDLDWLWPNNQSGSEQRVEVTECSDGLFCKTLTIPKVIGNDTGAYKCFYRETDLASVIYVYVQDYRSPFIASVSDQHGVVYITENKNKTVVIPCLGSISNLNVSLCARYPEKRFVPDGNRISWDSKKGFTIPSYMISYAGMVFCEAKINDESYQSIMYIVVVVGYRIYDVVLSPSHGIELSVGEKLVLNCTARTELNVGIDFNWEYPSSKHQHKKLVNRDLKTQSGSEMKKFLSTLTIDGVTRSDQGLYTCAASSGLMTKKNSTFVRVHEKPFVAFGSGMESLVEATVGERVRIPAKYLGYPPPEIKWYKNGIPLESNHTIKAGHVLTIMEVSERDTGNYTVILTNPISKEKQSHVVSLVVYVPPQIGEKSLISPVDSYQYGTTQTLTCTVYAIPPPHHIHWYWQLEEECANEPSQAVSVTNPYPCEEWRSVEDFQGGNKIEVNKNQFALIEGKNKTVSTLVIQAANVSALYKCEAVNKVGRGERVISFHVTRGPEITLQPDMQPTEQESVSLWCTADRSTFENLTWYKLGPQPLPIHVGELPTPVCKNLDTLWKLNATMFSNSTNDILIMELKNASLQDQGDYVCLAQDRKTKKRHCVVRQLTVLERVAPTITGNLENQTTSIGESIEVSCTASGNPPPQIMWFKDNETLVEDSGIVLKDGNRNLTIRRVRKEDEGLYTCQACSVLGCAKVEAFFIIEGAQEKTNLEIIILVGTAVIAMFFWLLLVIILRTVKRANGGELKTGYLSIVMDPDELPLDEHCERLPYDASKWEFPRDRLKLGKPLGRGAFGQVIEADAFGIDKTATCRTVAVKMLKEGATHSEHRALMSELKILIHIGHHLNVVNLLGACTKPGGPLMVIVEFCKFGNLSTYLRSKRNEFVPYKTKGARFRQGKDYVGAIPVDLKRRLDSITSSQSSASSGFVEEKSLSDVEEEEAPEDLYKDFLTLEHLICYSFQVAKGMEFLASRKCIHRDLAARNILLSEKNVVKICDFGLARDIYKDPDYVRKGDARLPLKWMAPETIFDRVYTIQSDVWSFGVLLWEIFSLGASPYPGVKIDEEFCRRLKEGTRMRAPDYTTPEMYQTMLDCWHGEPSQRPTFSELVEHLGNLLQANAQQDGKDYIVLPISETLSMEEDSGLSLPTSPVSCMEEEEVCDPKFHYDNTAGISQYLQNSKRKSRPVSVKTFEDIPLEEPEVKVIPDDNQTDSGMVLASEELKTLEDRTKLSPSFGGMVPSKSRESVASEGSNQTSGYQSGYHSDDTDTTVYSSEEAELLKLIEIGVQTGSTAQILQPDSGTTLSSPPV

Lyn Kinase = Lyn Kinase (Homo sapiens, UniProt P07948); experiment: Kinase panel (TABLE F), Lyn Kinase; assay type: biochemical
Lyn Kinase, sequence (P07948 whole entry): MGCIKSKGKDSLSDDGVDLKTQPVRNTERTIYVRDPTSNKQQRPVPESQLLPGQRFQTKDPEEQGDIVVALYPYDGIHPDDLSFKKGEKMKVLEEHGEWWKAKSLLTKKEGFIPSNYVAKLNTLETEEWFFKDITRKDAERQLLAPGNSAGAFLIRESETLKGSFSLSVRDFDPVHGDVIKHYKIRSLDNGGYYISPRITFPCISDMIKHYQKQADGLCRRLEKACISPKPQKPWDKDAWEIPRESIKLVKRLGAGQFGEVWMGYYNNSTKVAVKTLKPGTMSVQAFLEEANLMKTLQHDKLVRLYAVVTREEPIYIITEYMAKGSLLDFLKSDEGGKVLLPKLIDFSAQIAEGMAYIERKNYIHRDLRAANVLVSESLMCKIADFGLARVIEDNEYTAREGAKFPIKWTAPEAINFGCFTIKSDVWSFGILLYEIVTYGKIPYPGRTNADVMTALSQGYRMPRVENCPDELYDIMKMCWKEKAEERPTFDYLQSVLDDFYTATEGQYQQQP

FLT-3 Kinase = FLT-3 Kinase (Homo sapiens, UniProt P36888); experiment: Kinase panel (TABLE F), FLT-3 Kinase; assay type: biochemical
Ret Kinase = Ret Kinase (Homo sapiens, UniProt P07949); experiment: Kinase panel (TABLE F), Ret Kinase; assay type: biochemical
Ret Kinase, sequence (P07949 29-1114): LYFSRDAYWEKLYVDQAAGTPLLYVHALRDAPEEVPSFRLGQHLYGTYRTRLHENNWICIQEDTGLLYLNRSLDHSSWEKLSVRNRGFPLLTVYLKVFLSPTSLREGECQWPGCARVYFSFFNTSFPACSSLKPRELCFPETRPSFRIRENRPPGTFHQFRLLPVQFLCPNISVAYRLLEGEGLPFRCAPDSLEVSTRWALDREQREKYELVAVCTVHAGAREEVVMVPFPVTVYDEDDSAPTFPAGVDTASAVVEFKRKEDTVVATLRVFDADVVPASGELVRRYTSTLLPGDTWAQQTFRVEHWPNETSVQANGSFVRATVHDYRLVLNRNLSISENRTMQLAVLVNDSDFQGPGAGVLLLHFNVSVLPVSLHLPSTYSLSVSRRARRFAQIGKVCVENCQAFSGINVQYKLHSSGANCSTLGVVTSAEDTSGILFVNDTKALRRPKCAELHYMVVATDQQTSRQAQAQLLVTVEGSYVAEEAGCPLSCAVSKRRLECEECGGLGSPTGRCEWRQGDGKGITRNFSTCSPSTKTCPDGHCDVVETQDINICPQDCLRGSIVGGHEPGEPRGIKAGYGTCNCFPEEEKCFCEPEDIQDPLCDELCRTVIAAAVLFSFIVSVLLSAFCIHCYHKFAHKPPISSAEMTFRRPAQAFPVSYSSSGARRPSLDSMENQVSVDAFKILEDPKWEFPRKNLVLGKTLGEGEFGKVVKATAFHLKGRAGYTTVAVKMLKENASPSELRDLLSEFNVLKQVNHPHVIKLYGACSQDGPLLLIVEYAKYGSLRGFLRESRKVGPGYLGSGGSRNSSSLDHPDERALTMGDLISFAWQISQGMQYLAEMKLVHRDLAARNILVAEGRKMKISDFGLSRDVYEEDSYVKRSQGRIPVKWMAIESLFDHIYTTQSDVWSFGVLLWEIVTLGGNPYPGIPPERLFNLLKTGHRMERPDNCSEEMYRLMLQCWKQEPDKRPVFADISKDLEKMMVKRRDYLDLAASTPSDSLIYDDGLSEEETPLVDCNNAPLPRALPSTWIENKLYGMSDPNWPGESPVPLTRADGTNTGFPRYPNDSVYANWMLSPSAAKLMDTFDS

in vivo = conditions: male, CD-1, mouse, ip; for AUC: AUC (h * ng/ml)
Experimental: Drug Preparation and Administration.
Blood and tissue Sample Collection.
Plasma Sample Extraction. Plasma samples were prepared by protein precipitation. An internal standard was added into plasma samples. […] The supernatant was then injected onto LC/MS/MS.
Samples were compared to standards made in plasma. These standards were prepared by serial dilution.
Tissue Sample Extraction. […] Tissues were homogenized in 0.8 ml water. An internal standard was added into the tissue homogenates.
LC/MS/MS Analytical Methods.
LC Conditions are shown below:

[7] = both, Sprague Dawley, rat, in vivo, iv, 8 days
Experimental: The experimental methods used for the toxicity study below are described as follows:
2. Single dosing MTD in rats • a. Sprague Dawley, male and female, 240-260 gram • b. Dosing at 0, 25, 50, 100, 200 mg/kg, iv infusion 5 min • c. 6 rats per group (3 male and 3 female)
as §5

Lck Kinase, sequence (P06239 whole entry): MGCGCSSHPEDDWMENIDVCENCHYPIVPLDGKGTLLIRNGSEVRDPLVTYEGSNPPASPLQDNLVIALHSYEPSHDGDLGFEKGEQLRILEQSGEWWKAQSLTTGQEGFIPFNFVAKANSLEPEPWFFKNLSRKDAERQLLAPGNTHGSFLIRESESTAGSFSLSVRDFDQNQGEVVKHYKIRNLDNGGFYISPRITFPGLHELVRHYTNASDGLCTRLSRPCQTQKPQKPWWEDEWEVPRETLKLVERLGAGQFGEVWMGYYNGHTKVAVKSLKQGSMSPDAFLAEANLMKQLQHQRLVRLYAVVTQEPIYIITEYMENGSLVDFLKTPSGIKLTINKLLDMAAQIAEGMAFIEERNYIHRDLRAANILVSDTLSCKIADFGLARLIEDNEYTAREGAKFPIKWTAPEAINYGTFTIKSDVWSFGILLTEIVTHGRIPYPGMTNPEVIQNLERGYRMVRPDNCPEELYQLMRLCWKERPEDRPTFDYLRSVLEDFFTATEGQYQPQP

With `C#Cc1cccc(Nc2ncnc3cc(OC)c(OCCCCCCC(=O)NO)cc23)c1` [Compound 12] the inhibition at 5 µM (Lck Kinase) was 56%, the pIC50 ([1]; TABLE C, 72 hours, 0.5% fetal bovine serum, ATP content, read-out: IC50 grading, Prostate_22RV1) was 6.00 to 7.00 and the pIC50 ([1]; TABLE D, Prostate carcinoma, read-out: IC50 grading, 22RV1) was 6.30 to 7.30. The inhibition at 5 µM (FGFR2 Kinase) was 73%, the pIC50 (Pancreas_BxPC3) was > 7.00 and the pIC50 (Lung_H292) was > 7.00. The pIC50 (Lung_H460) was 6.00 to 7.00, the pIC50 ([2]; TABLE C, 72 hours, 0.5% fetal bovine serum, ATP content, read-out: IC50 grading, Prostate_PC3) was 6.00 to 7.00 and the pIC50 ([2]; TABLE D, Prostate adenocarcinoma, read-out: IC50 grading, PC-3) was 5.30 to 6.30. The pIC50 ([3]; TABLE C, 72 hours, 0.5% fetal bovine serum, ATP content, read-out: IC50 grading, Epidermoid_A431) was 6.00 to 7.00, the pIC50 ([3]; TABLE D, Epidermoid carcinoma, read-out: IC50 grading, A431) was 6.30 to 7.30 and the “dose without significant change in body weight” value [4] was “up to 200 mg/kg”. It also gave a pIC50 [5] of 6.00 to 7.00, a pIC50 (Lung_H2122) of 6.00 to 7.00 and a pIC50 (Lung_H358) of 6.00 to 7.00. The inhibition at 5 µM (Abl Kinase) was 57%, the pIC50 (Pancreas_HPAC) was 5.00 to 6.00 and the pIC50 (Pancreas_Capan1) was 6.00 to 7.00. It also gave a pIC50 ([6]; TABLE C, 72 hours, 0.5% fetal bovine serum, ATP content, read-out: IC50 grading, Breast_SkBr3) of 6.00 to 7.00, a pIC50 ([6]; TABLE D, Breast carcinoma, read-out: IC50 grading, SKBr3) of 6.30 to 7.30 and an inhibition at 5 µM (VEGFR2 Kinase) of 64%. The inhibition at 5 µM (Lyn Kinase) was 95%, the inhibition at 5 µM (FLT-3 Kinase) was 85% and the inhibition at 5 µM (Ret Kinase) was 93%. It also gave an AUC (in vivo; 20 mg/kg) of 3750 ng·h/mL, an AUC (in vivo; 60 mg/kg) of 5720 ng·h/mL and a Cmax (in vivo; 60 mg/kg, Cmax (uM)) of 14.4 µM. For the same compound, the “dose without significant change in body weight” value [7] was “up to 200 mg/kg”.
